“Also recorded” adds a separate entry of the source.

Series [1] has as its system MV4; 11 cells. As to the kind of experiment: Viability of pediatric AML cell line. Particulars: 11, FIG. 6A. The format is cell-based.
Series [2] relates to MV4; 11 cells. Briefly: Cellular uptake, fluorescence scan of lysates from treated cells. The format is cell-based. Conditions: full serum, 4 h, FIG. 6B. The protocol: Cellular Penetrability Assays: To measure the cell penetrability of peptides or crosslinked polypeptides, intact cells are incubated with fluoresceinated crosslinked polypeptides (10 μM) for 4 hrs in serum-free media or in media supplemented with human serum at 37° C., washed twice with media and incubated with trypsin (0.25%) for 10 min at 37° C. The cells are washed again and resuspended in PBS. Cellular fluorescence is analyzed, for example, by using either a FACSCalibur flow cytometer or Cellomics' KineticScan® HCS Reader. Alternative methods include, e.g., high content epifluorescence microscopy, confocal imaging, or fluorescence scan of electrophoresed lysates from FITC-peptide treated cells (see, e.g., LaBelle et al. JCI 2012, 122: 2018-31).

Series [3] deals with Molm-14 leukemia cells. As to the kind of experiment: CellTiter-Glo viability, leukemia cells. The class given is cell-based. Particulars: wild-type p53, 10% serum, 48 h, FIG. 11. On the procedure: (§1) Importantly, the sensitivity of RS4; 11 and Molm-14 cells is peptide sequence dependent, as the F19A point mutant analog of ALRN-7041, ALRN-7041 F19A, has no effect (FIG. 11). Leukemia cells were treated in 10% serum with a serial dilution of stapled p53 peptides or Nutlin 3a, and then measured by CellTiter-Glo assay.

The test system of series [4] is Nomo-1. As to the kind of experiment: CellTiter-Glo viability, leukemia cells. The format is cell-based. Conditions: mutant p53 (C242 frameshift), 10% serum, 48 h, FIG. 11. The protocol: as §1
A general note: ATP-based viability assays read luminescence as a measure of living cells.

The test system of series [5] is RS4; 11 leukemia cells. Briefly: CellTiter-Glo viability, leukemia cells. Conditions: wild-type p53, 10% serum, 48 h, FIG. 11. The format is cell-based. The protocol:
as §1

Series [6] concerns Thp-1. Briefly: CellTiter-Glo viability, leukemia cells. The class given is cell-based. Conditions: mutant p53 (R174 frameshift), 10% serum, 48 h, FIG. 11. The protocol:
as §1

The subject of series [7] is p53 protein level in RS4; 11 cells. Briefly: p53 protein level by flow cytometry. The format is cell-based. Particulars: 3 hours, 10% serum, FIG. 12. The protocol: RS4; 11 cells were plated in 6-well plates (10^6/well) in RMPI containing 10% FBS and treated for 3 hours with ALRN-7041, ALRN-7041 F19A, or vehicle control (0.2% DMSO) in the presence of 10% serum. Cells were then harvested by centrifugation, washed in ice cold PBS, and resuspended in 100 viL PBS containing 1 μL Fixable Viability Stain 450 (BD Biosciences, Franklin Lakes. NJ, USA) and incubated in the dark at room temperature for 15 minutes. The cells were stained for p53 immunofluorescence with Cytofix/Cytoperm and the PE Mouse Anti-p53 Set (BD Biosciences) according to the manufacturer's instructions, using 10 viL PE-G59-12 anti-p53 mouse IgG1 or isotype control antibody per 10 6 cells. Stained and fixed cells were analyzed on an LSR II flow cytometer (BD Biosciences). Cell populations were gated on forward and side scatter to select for single cells and on fluorescence at 450 nm to select for live cells, and PE fluorescence in the gated population was measured at 578 nm.

The test system of series [8] is high grade glioma (e.g. GBM) neurospheres bearing mutant p53. As to the kind of experiment: CellTiter-Glo viability, neurospheres. The format is cell-based. Particulars: 72 h, FIG. 13.
Description: (§4) Cells were plated in 96-well opaque plates (5000 cells/well) in Neurobasal-A/DMEM/F-12 mixture media containing HEPES, MEM sodium pyruvate, MEM non-essential amino acids, GlutaMAX, B27 Supplement, H-EGF, H-FGF, H-PDGF-AA, H-PDGF-BB, and heparin. The following day, the cells were treated with the indicated concentrations of drug or vehicle control (0.2% DMSO). […] Cell viability was measured after 72 h by CellTiter-Glo assay (Promega, Madison, WI, USA), performed according to the manufacturer's instructions, and percent viability calculated based on the untreated controls. Error bars are mean±s.e.m for experiments performed in technical triplicate.
Series [9] deals with Ewing sarcoma cell lines that bear wild-type p53. As to the kind of experiment: CellTiter-Glo viability, Ewing sarcoma cell line panel. The format is cell-based. Conditions: 72 h, FIG. 14. An excerpt: (§2) Error bars are mean±s.e.m. for eight technical replicates.
(§3) A panel of Ewing sarcoma cell lines that bear wild-type p53 (black) vs. mutant or deleted p53 (grey) were exposed to a serial dilution of ALRN-7041 (FIG. 14).

The subject of series [10] is Ewing sarcoma cells bearing mutant or deleted p53. Described as above. The format is cell-based. Particulars: 72 h, FIG. 14.
Description: as §2, §3

Series [11] has as its system p53 wild-type TC32 and TC138 Ewing sarcoma cells. Briefly: Western blot of lysates, p53 pathway. The format is cell-based. Particulars: FIG. 15. An excerpt: Western blot analysis of electrophoresed lysates from p53 wild-type TC32 and TC138 Ewing sarcoma cells treated with ALRN-7041 at the indicated doses and time points and probed with anti-MDM2, p53, and p21 antibodies.
(Immunoblotting shows a protein as a band on a membrane.)

Series [12] has as its system TC32 Ewing sarcoma cells. As to the kind of experiment: Annexin V/PI staining and FACS analysis. The format is cell-based. Conditions: 1 μM, 48 hours post-treatment, FIG. 16. The protocol:
TC32 Ewing sarcoma cells were treated with vehicle or 1 μM ALRN-7041 and then subjected to Annexin V/PI staining and FACS analysis at 48 hours post-treatment.
For orientation: Flow cytometry measures light scatter and fluorescence of single cells or particles in a stream.

Series [13] has as its system TC32 Ewing Sarcoma xenograft. As to the kind of experiment: Western analysis of xenograft tumor tissue. The format is in vivo, mice. Particulars: three intravenous doses, 8 hours after last dose, FIG. 17. On the procedure:
After TC32 Ewing sarcoma tumor engraftment, mice were treated with three intravenous doses of ALRN-7041 or vehicle and sacrificed 8 hours after the last dose. Each lane of the gel represents an individual mouse tumor, subjected to western analysis using anti-MDM2, p53, and p21 antibodies. Anti-tubulin was used as a loading control.

For series [14], the system named is TC32 Ewing Sarcoma xenografts. As to the kind of experiment: mRNA quantitation in xenograft tumor tissue. The format is in vivo, mice. Particulars: normalized to vehicle-treated samples, FIG. 18. An excerpt: ALRN-7041 treatment of mice bearing TC32 Ewing Sarcoma xenografts increases MDM2 and p21 mRNA levels in tumor tissue (FIG. 18). Each bar represents the response of an individual mouse tumor, as assessed by replicates of mRNA quantitation. Values are normalized to vehicle-treated samples. Error bars are mean±SD.

Series [15] relates to TC32 Ewing Sarcoma xenografts. Briefly: Xenograft tumor growth. The class given is in vivo, mice. Conditions: 30 mg/kg IV q.o.d. vs vehicle, two-way ANOVA p=0.0036, FIG. 19. The protocol:
Treatment of mice bearing TC32 Ewing Sarcoma xenografts with 30 mg/kg ALRN-7041 IV q.o.d. […] Error bars are mean±SD. For each animal, treatment was instituted when tumors achieved a tumor volume of 100 mm^3, as determined by caliper measurement. Statistical ignificance was calculated by two-way ANOVA analysis (p=0.0036).

Series [16] has as its system DIPG neurospheres bearing wild-type p53.
Description: as §4

Take Ac-LTF*EYWAQZ*SAA-NH2 [ALRN-7041]: the cell viability result in series [1] is “impairs cell viability in both a dose-responsive and peptide sequence-dependent fashion; also recorded: dose-responsively impairs the viability”; in [3] it was “succumb to ALRN-7041 in dose-responsive fashion”; in [4], “unaffected by treatment”; in [5], “succumb to ALRN-7041 in dose-responsive fashion”; in series [6] it was “unaffected by treatment”; in series [8] it was “no susceptibility”. Besides, the cell viability result was “dose-responsively impaired the viability” in series [9]; “little to no effect” in series [10]; “succumb to treatment” in series [16] (72 h, FIG. 13). Besides, the cellular uptake entry in series [2] is recorded as “readily taken up by cells”. Further, the p53 protein level result in [7] is “dose-responsively upregulates p53 protein level”. Further, the MDM2 protein induction entry in [11] is given as “transient induction”. Moreover, the p21 protein induction entry in series [11] was “robust induction”. For the same compound, in [11], the p53 protein induction result was “robust induction”. The “Annexin V/PI double positivity (apoptosis)” value in series [12] was “robust Annexin V/PI double positivity”. In addition, the “MDM2 protein level in tumor tissue” value in series [13] is “induces”. In [13], the “p21 protein level in tumor tissue” value is given as “induces”. The “p53 protein level in tumor tissue” value in [13] is “induces”. The “MDM2 mRNA level in tumor tissue” value in series [14] was “increases”. Further, the “p21 mRNA level in tumor tissue” value in series [14] is “increases”. Further, the tumor growth entry in series [15] is “statistically significant suppression of tumor growth”. Also, the “cytotoxic effect compared to a selective small molecule inhibitor of HDM2” value in [16] is listed as “markedly enhanced cytotoxic effect”.
With `COc1ccc(C2=N[C@@H](c3ccc(Cl)cc3)[C@@H](c3ccc(Cl)cc3)N2C(=O)N2CCNC(=O)C2)c(OC(C)C)c1` [Nutlin-3a, reference compound], the cell viability entry in [1] is on record as “little to no effect; also recorded: resistant”.

The values are drawn from US20240075099A1, “COMPOSITIONS, ASSAYS, AND METHODS FOR TARGETING HDM2 AND HDMX TO REVERSE THE INHIBITION OF p53 IN [sequence] CANCERS” (Dana-Farber Cancer Institute, Inc., priority 2016, published 2024).
